Measured values reported in publication PMC10495264 (Nature Cell Biology, 2023).
Where “and” joins values, the source holds several entries; their conditions need not be identical. Identical values can stand only once.

What was measured:
[1] = test system: mTORC2; experiment: mTORC2 activity in HEK293FT cells, p-AKT^S473/AKT immunoblot; assay type: cell-based, human
Description: Phosphorylation of Ypk1 was used as the TORC2 readout. Phosphorylation of Snf1 was used as the AMPK activation readout. Total Snf1 was detected with an antibody to a histidine (His) stretch in Snf1. […] Source numerical data and unprocessed blots are provided. Source data
(§1) Amino-acid-starvation experiments were carried out as described before[42],[43]. […] For the lipid depletion experiments, cells were cultured in medium containing 10% charcoal-stripped FBS (A3382101, Thermo Fisher Scientific), instead of full FBS, for 24 h before treatments with FASN inhibitors were performed. For FA supplementation, each FA was first conjugated to 10% FA-free BSA (fraction V; cat. no. 10735086001, Roche) for 1 h at 50 °C in a 50:50 volumetric ratio. The BSA-conjugated C16:0, C16:1, C18:1 and C18:2 FAs (100 μM) were then added to the media both 16 h previous to and at the start of the treatment with FASN inhibitors.
(§2) For standard SDS–PAGE and immunoblotting experiments, cells from a well of a 12-well plate were lysed in 250 μl of ice-cold Triton lysis buffer (50 mM Tris pH 7.5, 1% Triton X-100, 150 mM NaCl, 50 mM NaF, 2 mM Na-vanadate and 0.011 g ml^−1 β-glycerophosphate) supplemented with 1×PhosSTOP phosphatase inhibitors (cat. no. 4906837001, Roche) and 1×cOmplete protease inhibitors (cat. no. 11836153001, Roche) for 10 min on ice. The samples were clarified by centrifugation (20,000g, 15 min, 4 °C) and the supernatants were boiled in 1×SDS sample buffer (5×SDS sample buffer: 350 mM Tris–HCl pH 6.8, 30% glycerol, 600 mM DTT, 12.8% SDS and 0.12% bromophenol blue). The band intensities were quantified using the ImageJ software.

[2] = test system: mTORC1; experiment: mTORC1 activity in HEK293T cells (WT, AMPKα1/2 KO, DEPDC5 and RagA/B triple KO), p-S6K^T389/S6K immunoblot; assay type: cell-based, human
Description: Source numerical data and unprocessed blots are provided. Source data
as §2
Data in graphs are shown as the mean ± s.e.m. *P < 0.05, **P < 0.005, ***P < 0.0005. Source numerical data and unprocessed blots are provided. Source data

[3] = test system: mTOR lysosomal localization; experiment: Co-localization of mTOR with LAMP2, confocal microscopy; assay type: cell-based, human
[4] = test system: mTORC1; experiment: mTORC1 activity in U2OS cells, immunoblot; assay type: cell-based, human; details: Fasnall 25 μM 30 min; cerulenin 50 μM 2 or 4 h
[5] = test system: mTORC1; experiment: mTORC1 activity in mouse embryonic fibroblasts (MEFs), p-S6K^T389/S6K immunoblot; assay type: cell-based
[6] = test system: ERK1/2; experiment: ERK1/2 phosphorylation immunoblot; assay type: cell-based, human; details: ED Fig. 5k; relative to DMSO
Description: as §2
(§3) Data in graphs are shown as the mean ± s.e.m. *P < 0.05, **P < 0.005. Source numerical data and unprocessed blots are provided. Source data

[7] = test system: AMPK; experiment: AMPK and ACC1 phosphorylation immunoblot; assay type: cell-based, human; details: relative to DMSO
Description: as §2, §3

[8] = test system: mTORC1; experiment: mTORC1 activity in HEK293FT cells (WT and knockout lines), phosphorylation of S6K, 4E-BP1, Grb10, TFEB by immunoblot; assay type: cell-based, human; details: for p-S6K(T389)/S6K: Replicates 1-3, DMSO = 1 (ED Fig. 8h)
Description: Data represent the median fluorescence intensity of OPP Alexa Fluor 488; n = 6 biological replicates from two independent experiments. b,c,e,g,i,k,l, Data are the mean ± s.e.m. *P < 0.05, **P < 0.005, ***P < 0.0005. […] Source numerical data and unprocessed blots are provided. Source data
as §1, §2

[9] = Fasnall 25 μM 30 min, cerulenin 50 μM 4 h

## Cc1sc2ncnc(NC3CCN(Cc4ccccc4)C3)c2c1C (stereo not shown) [Fasnall]
[1]; 25 μM Fasnall 30 min, DMSO = 1, n = 4, Fig. 3b
  p-AKT(S473)/AKT, Mean: 1.017
[1]; [9]
  phosphorylation of Akt (mTORC2 substrate): did not significantly alter
[2]; ED Fig. 7b, AMPKa1/2 KO, 30', relative to AMPKa1/2 KO DMSO
  p-S6K(T389)/S6K, Mean: 0.6838
[2]; ED Fig. 7b, AMPKa1/2 KO, 60', relative to AMPKa1/2 KO DMSO
  p-S6K(T389)/S6K, Mean: 0.7858
[2]; ED Fig. 7b, WT, 30', relative to WT DMSO
  p-S6K(T389)/S6K, Mean: 0.4433
[2]; ED Fig. 7b, WT, 60', relative to WT DMSO
  p-S6K(T389)/S6K, Mean: 0.4902
[2]; ED Fig. 7g, DEPDC5+RagA/B KO, 30', relative to DEPDC5+RagA/B KO DMSO
  p-S6K(T389)/S6K, Mean: 0.2954
[2]; ED Fig. 7g, DEPDC5+RagA/B KO, 60', relative to DEPDC5+RagA/B KO DMSO
  p-S6K(T389)/S6K, Mean: 0.2391
[2]; ED Fig. 7g, WT, 30', relative to WT DMSO
  p-S6K(T389)/S6K, Mean: 0.4545
[2]; ED Fig. 7g, WT, 60', relative to WT DMSO
  p-S6K(T389)/S6K, Mean: 0.4895
[3]; Fasnall 30', Replicate 2, individual cells (ED Fig. 8b)
  mTOR/LAMP2 colocalization (Manders' coefficient): 0.475 and 0.399 and 0.259 and 0.343 and 0.372 and 0.439 and 0.359 and 0.413 and 0.403 and 0.14 and 0.1 and 0.291 and 0.207 and 0.085 and 0.364 and 0.524 and 0.395 and 0.22 and 0.281 and 0.339 and 0.627 and 0.352 and 0.483 and 0.276 and 0.195 and 0.511 and 0.191
[3]; Fasnall 30', Replicate 4, individual cells (ED Fig. 8b)
  mTOR/LAMP2 colocalization (Manders' coefficient): 0.446 and 0.648 and 0.366 and 0.481 and 0.313 and 0.232 and 0.1 and 0.151 and 0.321 and 0.261 and 0.549 and 0.486 and 0.59 and 0.448 and 0.288 and 0.329 and 0.377 and 0.426 and 0.197 and 0.422 and 0.449 and 0.465 and 0.297 and 0.542 and 0.319 and 0.458 and 0.212 and 0.351 and 0.306
[3]; Fasnall 30', mean of pooled individual cells (ED Fig. 8b), DMSO mean 0.568258
  mTOR/LAMP2 colocalization (Manders' coefficient), Mean: 0.3868
[3]; Fasnall 60', Replicate 2, individual cells (ED Fig. 8b)
  mTOR/LAMP2 colocalization (Manders' coefficient): 0.202 and 0.487 and 0.43 and 0.287 and 0.399 and 0.342 and 0.295 and 0.326 and 0.268 and 0.605 and 0.328 and 0.333 and 0.315 and 0.375 and 0.636 and 0.498 and 0.603 and 0.513 and 0.443
[3]; Fasnall 60', Replicate 4, individual cells (ED Fig. 8b)
  mTOR/LAMP2 colocalization (Manders' coefficient): 0.425 and 0.202 and 0.399 and 0.49 and 0.499 and 0.282 and 0.303 and 0.344 and 0.361 and 0.405 and 0.518 and 0.461 and 0.434 and 0.504 and 0.271 and 0.298 and 0.295 and 0.41 and 0.416 and 0.567 and 0.365 and 0.689 and 0.431 and 0.398 and 0.488
[3]; Fasnall 60', mean of pooled individual cells (ED Fig. 8b), DMSO mean 0.568258
  mTOR/LAMP2 colocalization (Manders' coefficient), Mean: 0.4158
[3]; HEK293FT, 25 μM Fasnall or 50 μM cerulenin
  mTOR localization at lysosomes (co-localization with LAMP2): significant dissociation
[3]; Luc-expressing cells, Fasnall 30' (ED Fig. 8j), Luc DMSO mean 0.429851
  mTOR/LAMP2 colocalization (Manders' coefficient), Mean: 0.3242
[3]; RagA(QL)/C(SN)-expressing cells, Fasnall 30' (ED Fig. 8j), DMSO mean 0.528308
  mTOR/LAMP2 colocalization (Manders' coefficient), Mean: 0.4688
[4]
  mTORC1 activity in U2OS: downregulates
[5]; ED Fig. 4b, relative to DMSO
  p-S6K(T389)/S6K, Mean: 0.4247
[5]; Fasnall 25 μM 30 min, cerulenin 50 μM 2 or 4 h
  mTORC1 activity in MEFs: downregulates
[6]
  p-ERK(T202/Y204)/ERK, Mean: 0.525
[7]; ED Fig. 5b
  p-AMPK(T172)/AMPK, Mean: 4.063
[7]; ED Fig. 5c
  p-ACC1(S79)/ACC1, Mean: 2.603
[8]; ED Fig. 3b, relative to DMSO
  p-Grb10(S476)/Grb10, Mean: 0.4881
[8]; ED Fig. 3c, relative to DMSO
  p-TFEB(S211)/TFEB, Mean: 0.3867
[8]; ED Fig. 4n, relative to DMSO
  p-S6K(T389)/S6K, Mean: 0.2327
[8]; [9]
  mTORC1 activity towards Grb10 and TFEB (cerulenin: also 4E-BP1): downregulates
[8]; HEK293FT cells, Fasnall, cerulenin or siFASN
  mTORC1 activity (phosphorylation of S6K, 4E-BP1, Grb10 and TFEB): suppressed
[8]; HEK293FT expressing FLAG-ACC1 S79A, Fasnall 25 μM, 30 min, respective DMSO = 1, Fig. 4b
  p-S6K(T389)/S6K, Mean: 0.3193
[8]; HEK293FT expressing FLAG-ACC1 WT, Fasnall 25 μM, 30 min, respective DMSO = 1, Fig. 4b
  p-S6K(T389)/S6K, Mean: 0.6407
[8]; HEK293FT expressing FLAG-Luc, Fasnall 25 μM, 30 min, respective DMSO = 1, Fig. 4b
  p-S6K(T389)/S6K, Mean: 0.6832
[8]; HEK293FT, 25 μM Fasnall 30', DMSO = 1, n = 6, Fig. 2g
  p-S6K(T389)/S6K, Mean: 0.526
[8]; HEK293FT, 25 μM Fasnall 60', DMSO = 1, n = 6, Fig. 2g
  p-S6K(T389)/S6K, Mean: 0.5445
[8]; Luc-expressing cells, Fasnall 30', DMSO = 1 (ED Fig. 8h)
  p-S6K(T389)/S6K, Mean: 0.4328
[8]; Luc-expressing cells, Fasnall 30'
  p-S6K(T389)/S6K: 0.4633 and 0.548 and 0.2872
[8]; Luc-expressing cells, Fasnall 60', DMSO = 1 (ED Fig. 8h)
  p-S6K(T389)/S6K, Mean: 0.3861
[8]; Luc-expressing cells, Fasnall 60'
  p-S6K(T389)/S6K: 0.4934 and 0.1817 and 0.4832
[8]; RagA(QL)/C(SN)-expressing cells, Fasnall 30', DMSO = 1 (ED Fig. 8h)
  p-S6K(T389)/S6K, Mean: 0.4794
[8]; RagA(QL)/C(SN)-expressing cells, Fasnall 30'
  p-S6K(T389)/S6K: 0.6415 and 0.4768 and 0.3198
[8]; RagA(QL)/C(SN)-expressing cells, Fasnall 60', DMSO = 1 (ED Fig. 8h)
  p-S6K(T389)/S6K, Mean: 0.4741
[8]; RagA(QL)/C(SN)-expressing cells, Fasnall 60'
  p-S6K(T389)/S6K: 0.6662 and 0.3714 and 0.3847
[8]; RagA/B KO HEK293FT, 25 μM Fasnall 30', respective DMSO = 1, n = 4, Fig. 5i
  p-S6K(T389)/S6K, Mean: 0.306
[8]; RagA/B KO HEK293FT, 25 μM Fasnall 60', respective DMSO = 1, n = 4, Fig. 5i
  p-S6K(T389)/S6K, Mean: 0.3694
[8]; TSC1 KO HEK293FT, 25 μM Fasnall 30 min, respective DMSO = 1, n = 6, Fig. 5n
  p-S6K(T389)/S6K, Mean: 0.4771
[8]; WT HEK293FT, 25 μM Fasnall 30', respective DMSO = 1, n = 4, Fig. 5i
  p-S6K(T389)/S6K, Mean: 0.3695
[8]; WT HEK293FT, 25 μM Fasnall 60', respective DMSO = 1, n = 4, Fig. 5i
  p-S6K(T389)/S6K, Mean: 0.3619
[8]; WT HEK293FT, 25 μM Fasnall 30 min, respective DMSO = 1, n = 6, Fig. 5n
  p-S6K(T389)/S6K, Mean: 0.3275
